Measured values: patent publication US20250236614A1, “BICYCLIC TETRAHYDROAZEPINE DERIVATIVES” (Hoffmann-La Roche Inc., priority 2022, published 2025)
Read-outs that look alike come from different tables or passages of the source.

Legend:
[1] = target: DGK ζ kinase (Homo sapiens, UniProt Q13574); assay: In vitro DGK inhibition assay (ADP Glo) run by Reaction Biology Corp., DGK zeta; format: biochemical; details: isomer A, 2 nM kinase, 50 μM ATP, 500 uM DLG, 10-dose, 3-fold dilution starting at 1 μM, read-out: DGKzeta IC50
Description: DGK α and ζ kinase use ATP to phosphorylate the substrate 1,2-dilauroyl-sn-glycerol (DLG). ATP is converted to ADP as a result of this enzymatic reaction.
(§1) After the kinase reaction, an ATP-depletion reagent is added to terminate the kinase reaction and deplete any remaining ATP, leaving only ADP. Second, a detection reagent is added to simultaneously convert ADP to ATP and allow the newly synthesized ATP to be converted to light using a coupled luciferase/luciferin reaction.
DGK α and ζ kinase ADP Glo assays were ran by Reaction Biology Corp., 1 Great Valley Parkway, Suite 2, Malverm, 19355, PA, USA. Information provided by the service provider are the following: DGK α and ζ kinases were used at 2 nM final concentration. Reactions were carried out at 50 μM ATP. 500 uM of the substrate DLG (Dilauroyl-sn-glycerol) was used. Compounds were received at 10 mM DMSO stock solution and were tested in 10-dose IC50 duplicate with 3-fold serial dilution starting at 1 μM. A control compound, Calphostin C, was tested in 10-dose IC50 with 3-fold serial dilution starting at 100 μM.

[2] = target: T1, hDGKzeta(1-928)-N-His (DGKZ) (Homo sapiens, UniProt Q13574); assay: In vitro DGK inhibition assay (ADP-Glo, in house), DGK zeta; format: biochemical; details: isomer A; 2 nM DGK ζ, 50 μM ATP, 125 μM DLG in liposomes, 1 hour reaction; read-out: DGKzeta ADP Glo assay IC50
T1 construct: hDGKzeta(1-928)-N-His; His (N)
Description: DGK α and ζ kinase use ATP to phosphorylate the substrate 1,2-dilauroyl-sn-glycerol (DLG, incorporated in the liposomes). ATP is converted to ADP as a result of this enzymatic reaction.
as §1
Full length DGKA and Z were expressed in Sf21 insect cells by infecting the cells with the baculovirus stock at MOI of 2. Purification of both enzymes was performed as previously described by Takahashi et al., PeerJ, 2018 (Takahashi, D.; Sakane, F. Expression and purification of human diacylglycerolkinase alpha from baculovirus-infected insect cells for structural studies. PeerJ2018, 6, No. e5449).
A concentrated liposome solution was prepared in assay buffer without DTT and BSA: 2 mM of DLG in 21 mM of total liposome (2 mM DLG/8 mM PS/11 mM PC). The reaction mixtures contain the assay buffer with a final DLG concentration of 125 μM ATP concentrations of 25 μM (for DGKA assay) or 50 μM (for DGKZ assay). The reactions were started by addition of DGK α and ζ kinases at 4 nM and 2 nM final concentrations, respectively. After 1 hour reaction, the amount of ADP formed was detected with the ADP-Glo kinase assay (Promega) according to the manufacturer instructions. Compounds were added in 11I-points dose response, starting at 10 mM, 1:3 dilutions, with a final DMSO concentration of […]. The multidrop combi was used as a liquid handler and luminescence was read with 0.5 s by the envision reader (PE).

[3] = system: primary human T-cells; assay: IL2 secretion measurements in CD3-stimulated T-cells; format: cell-based; details: isomer A; for EC50: CD3 antibody-stimulated T-cells, IL2 in supernatant after 24 hours, read-out: Tcell IL2 CD3 EC50; for Emax IL2 (% activation) / Emax: CD3 condition, 24 hours, 20 μM reference compound A1 = 100%, DMSO neutral control; for Emax: read-out: Emax IL2 (% activation)
Description: As readouts for T-cell activation, IL2 secretion after 24 hours and proliferation after 5 days was measured. Increases in IL2 secretion and proliferation upon compound treatment were assessed as the % of the maximum of reference compound A1. WO 2016/139181 discloses reference compound A1 as example 70. As a counter screen and to make sure that no unwanted TCR-independent activation was triggered, PBS conditions were run for all compounds.
Expanded primary human T-cells were thawed and cultured in RPMI 1640 (Gibco, #61870-010)+5% human serum (HS, Sigma, #H3667)+1 mM Sodium Pyruvate (Gibco, #11360-039)+50 μM 2-mercaptoethanol (Gibco, #31350-010) and lx Pen-Strep (Life Technologies, #15140122) medium at density of 2 Mio/ml for 3 hours in 5% CO2, 37° C. and 95% humidity. For coating of plates, […] or PBS++ with CD3 antibody (concentration depending on donor and determined by CD3 titrations) was added 100 μl/well to Poly-D Lysine coated 96-well plates. Plates were sealed and incubated at room temperature for 3 hours on a table-top rocking platform. After incubation, plates were washed once with PBS−− and filled with 40 μl/well culture medium only. Compounds were then added (see next section) to medium only plates. After 3 hours of culturing the T-cells, cells were filtered through a cell strainer (Miltenyi Biotech, #130-041-407), counted again and concentration was adjusted to 1.25 Mio/ml.
Cells were then seeded 80 μl/well to the 40 μl/well including dispensed compounds according to plate layout. By adding cells, compounds were further diluted 1:3, and resulting in 100k cells/120 μl/well. After 24 hours 40 μl of supernatant was collected carefully from the top while not disturbing the cells and transferred into a round bottom 96 well plate. Collected and frozen supernatant was used for detection of IL2 using the IL-2 Human ProQuantum Immunoassay Kit (Invitrogen) or using the Human IL-2 ELISA Kit (Thermo Fisher).
Compounds were added in a 5 or 6 pt dose response with the Tecan D300e Digital Dispenser, all conditions 3 times more concentrated than the end-concentration, since cells are added afterwards (80 μl cells to 40 μl prepared medium with treatment). The DR was starting at 20 μM or 10 μM final top concentration and a dilution factor of 3.333. The positive control was the reference compound A1 that was added in a dose response as well, additionally to 3 wells of only 20 μM representing the positive stimulator control. All wells were normalized with DMSO to a final concentration of 0.6% (0.2% end-concentration).
The immunoassay is done following the manufacturer's manual (Invitrogen, #A35603).
Additional information: For the immunoassay, MicroAmp™ EnduraPlate™ Optical 384-Well plates are used. Frozen supernatant is thawed and centrifuged for 5 minutes at 1000×g, both steps at 4° C. After centrifugation, required sample amount is taken from the top, and in a separate LightCycler V-bottom plate (working plate) diluted with assay dilution buffer, dilution factor depending on the PBS or CD3 condition but at least 1:3. IL-2 standard and blanks are prepared in the same V-bottom plate, standard with a range of […] (extended version). After preparation, […] of sample dilutions or standard/blanks are transferred to the optical 384-well plate (assay plate) and the 10 μl reaction protocol is being followed. For measurement, the QuantStudio 12K Flex system is used. Raw data is extracted and IL-2 concentrations are calculated with the Thermo Fisher online app (apps.thermofisher.com/apps/proquantum).
ELISA is done following the manufacturer's manual (Thermo Fisher Scientific, #88-7025-88).
Additional information: For the ELISA Nunc MaxiSorp 96 well plates are used. Frozen supernatant is thawed and centrifuged for 5 minutes at 1000×g, both steps at 4° C. After that, required sample amount is taken from the top, and in a separate V-bottom plate diluted with ELISA diluent, dilution factor depending on the PBS or CD3 condition. […]

Sequence of DGK ζ kinase (Q13574 whole entry): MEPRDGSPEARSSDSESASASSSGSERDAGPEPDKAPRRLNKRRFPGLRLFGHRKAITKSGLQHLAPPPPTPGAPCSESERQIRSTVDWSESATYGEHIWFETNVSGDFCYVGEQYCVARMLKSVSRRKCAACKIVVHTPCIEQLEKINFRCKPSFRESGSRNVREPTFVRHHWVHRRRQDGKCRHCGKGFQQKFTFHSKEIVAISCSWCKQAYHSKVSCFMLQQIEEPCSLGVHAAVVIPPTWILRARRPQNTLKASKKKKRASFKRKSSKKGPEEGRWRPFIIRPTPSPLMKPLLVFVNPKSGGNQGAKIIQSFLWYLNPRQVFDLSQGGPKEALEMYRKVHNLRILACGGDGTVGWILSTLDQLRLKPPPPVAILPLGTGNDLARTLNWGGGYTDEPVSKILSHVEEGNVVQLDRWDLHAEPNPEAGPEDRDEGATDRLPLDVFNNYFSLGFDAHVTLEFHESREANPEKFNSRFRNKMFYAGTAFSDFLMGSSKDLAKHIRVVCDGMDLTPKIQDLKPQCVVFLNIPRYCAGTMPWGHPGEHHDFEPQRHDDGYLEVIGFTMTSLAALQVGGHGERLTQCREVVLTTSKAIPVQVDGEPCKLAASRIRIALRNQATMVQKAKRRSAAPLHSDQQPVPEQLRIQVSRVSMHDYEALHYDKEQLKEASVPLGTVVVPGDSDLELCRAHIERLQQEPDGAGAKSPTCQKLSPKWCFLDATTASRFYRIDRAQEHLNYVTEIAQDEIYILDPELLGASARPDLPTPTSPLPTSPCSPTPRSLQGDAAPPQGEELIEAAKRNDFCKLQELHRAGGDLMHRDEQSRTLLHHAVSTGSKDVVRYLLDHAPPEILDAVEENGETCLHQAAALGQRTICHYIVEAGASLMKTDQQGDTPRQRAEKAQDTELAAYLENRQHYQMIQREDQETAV
T1 sequence (Q13574 whole entry): as above

Row | IC50 [1] [nM] | IC50 [2] [nM] | EC50 ([3]; Homo sapiens, T-cell) [nM] | Compound | EC50 [3] [nM] | Emax IL2 (% activation) [3] [% activation] | Emax ([3]; Homo sapiens, T-cell) [%]
1 | 57.9 | 2400 | 2330 | CC(C)(c1nnc(-c2cc3c(cc2F)C(F)(F)CC(N)C(=O)N3Cc2ccc(Oc3ccccc3)cc2)o1)S(C)(=O)=O (racemic) [Example 5, (3S)-3-amino-5,5,7-trifluoro-8-[5-(1-methyl-1-methylsulfonyl-ethyl)-1,3,4-oxadiazol-2-yl]-1-[(4-phenoxyphenyl)methyl]-3,4-dihydro-1-benzazepin-2-one and (3R)-3-amino-5,5,7-trifluoro-8-[5-(1-methyl-1-methylsulfonyl-ethyl)-1,3,4-oxadiazol-2-yl]-1-[(4-phenoxyphenyl)methyl]-3,4-dihydro-1-benzazepin-2-one] |  |  | 165
2 | 80.3 | 1680 | 237 | CC(C)(C#N)c1nnc(-c2cc3c(cc2F)C(F)(F)CC(N)C(=O)N3Cc2ccc(-n3cc(C(F)(F)F)cn3)cc2)o1 (racemic) [Example 33, 2-[5-[(3S)-3-amino-5,5,7-trifluoro-2-oxo-1-[[4-[4-(trifluoromethyl)pyrazol-1-yl]phenyl]methyl]-3,4-dihydro-1-benzazepin-8-yl]-1,3,4-oxadiazol-2-yl]-2-methyl-propanenitrile and 2-[5-[(3R)-3-amino-5,5,7-trifluoro-2-oxo-1-[[4-[4-(trifluoromethyl)pyrazol-1-yl]phenyl]methyl]-3,4-dihydro-1-benzazepin-8-yl]-1,3,4-oxadiazol-2-yl]-2-methyl-propanenitrile] |  |  | 62
3 | 49.5 | 1730 | 280 | CC(C)(C)c1nnc(-c2cc3c(cc2F)C(F)(F)C[C@@H](N)C(=O)N3Cc2ccc(OC3CCCC3)cc2)o1 (single isomer, unassigned) [Example 7] |  |  | 94
4 | 32.6 | 2360 | 370 | COc1ccc(-c2ccc(CN3C(=O)[C@H](N)CC(F)(F)c4cc(F)c(-c5nnc(C(C)(C)C#N)o5)cc43)cc2)cc1 (single isomer, unassigned) [Example 9] |  |  | 133
5 |  | 5800 | 2080 | COc1ccc(-c2ccc(CN3C(=O)[C@H](N)CC(F)(F)c4cc(F)c(-c5nnc(C(C)(C)C#N)o5)cc43)cc2)nc1 (single isomer, unassigned) [Example 38] |  |  | 105
6 |  | 38800 | > 10000 | COc1ccc(-c2ccc(CN3C(=O)[C@H](N)CC(F)(F)c4cc(F)c(-c5nnc(C(C)(C)S(C)(=O)=O)o5)cc43)cc2)nc1 (single isomer, unassigned) [Example 39] |  |  | 35
7 |  | 2500 | > 10000 | CC(C)(C#N)c1nnc(-c2cc3c(cc2F)C(F)(F)C[C@@H](N)C(=O)N3Cc2ccc(-c3ccc(C(F)F)cn3)cc2)o1 (single isomer, unassigned) [Example 40] |  |  | 27
8 |  | 8220 | 884 | CC(C)(C#N)c1nnc(-c2cc3c(cc2F)C(F)(F)C[C@@H](N)C(=O)N3Cc2ccc(-c3ccc(OC(F)F)cn3)cc2)o1 (single isomer, unassigned) [Example 41] |  |  | 131
9 |  | 19900 | 1050 | CC(C)(C)c1nnc(-c2cc3c(cc2F)C(F)(F)CC(N)C(=O)N3Cc2ccc(OC(F)(F)F)cc2)o1 (centres unmarked) [Example 1, 3-amino-8-(5-tert-butyl-1,3,4-oxadiazol-2-yl)-5,5,7-trifluoro-1-[[4-(trifluoromethoxy)phenyl]methyl]-3,4-dihydro-1-benzazepin-2-one] |  |  | 96

Row | Compound | IC50 [1] [nM] | IC50 [2] [nM] | EC50 ([3]; Homo sapiens, T-cell) [nM] | EC50 [3] [nM] | Emax IL2 (% activation) [3] [% activation] | Emax ([3]; Homo sapiens, T-cell) [%]
10 | 2-methyl-2-[5-[(3S)-3-amino-5,5,7-trifluoro-2-oxo-1-[[4-(trifluoromethoxy)phenyl]methyl]-3,4-dihydro-1-benzazepin-8-yl]-1,3,4-oxadiazol-2-yl]propanenitrile and 2-methyl-2-[5-[(3R)-3-amino-5,5,7-trifluoro-2-oxo-1-[[4-(trifluoromethoxy)phenyl]methyl]-3,4-dihydro-1-benzazepin-8-yl]-1,3,4-oxadiazol-2-yl]propanenitrile [Example 2] | 22.1 | 1810 |  | 827 | 256 | 
11 | COC(=O)N1CC2CC(c3nnc(-c4cc5c(cc4F)C(F)(F)CC(N)C(=O)N5Cc4ccc(-c5noc(C(F)(F)F)n5)cc4)o3)(C2)C1 (single isomer, unassigned) [Example 42] |  | 2220 | 2890 |  |  | 129
12 | (3S)-3-amino-5,5,7-trifluoro-8-(5-morpholino-1,3,4-oxadiazol-2-yl)-1-[[4-(trifluoromethoxy)phenyl]methyl]-3,4-dihydro-1-benzazepin-2-one and (3R)-3-amino-5,5,7-trifluoro-8-(5-morpholino-1,3,4-oxadiazol-2-yl)-1-[[4-(trifluoromethoxy)phenyl]methyl]-3,4-dihydro-1-benzazepin-2-one [Example 3] |  | 2890 |  | > 10000 | 37 | 
